pEC50: −log10 of the molar value. Values after ≈ are worked out from the molar mass of the structure shown. Active and inactive are the calls of the source. The rule behind the calls is not given here.
Columns and labels:
[1] = Growth inhibition of human breast cancer stem cells; format: functional
[2] = Growth inhibition of human mammary epithelial cells at 20 uM; format: cell-based; conditions: epithelial cell
[3] = species on record: Homo sapiens; assay: Growth inhibition of human breast cancer stem cells at 20 uM; format: functional
[4] = Growth inhibition of human mammary epithelial cells; format: cell-based; conditions: Epithelial cell
[5] = Stability in phosphate buffered saline with 0.1% DMSO assessed as compound remaining measured after 48 hrs by UPLC-MS method; format: physicochemical; conditions: read-out: Stability
[6] = Solubility in phosphate buffered saline at 100 microM with 1% DMSO at pH 7.4 at 23 degC by UPLC-MS method; format: physicochemical
[7] = Protein binding in human plasma incubated for 48 hrs by UPLC-MS method; format: ADME, cell-free; conditions: read-out: PPB (converted)
[8] = Stability in human plasma assessed as compound remaining measured after 5 hrs by UPLC-MS method; format: ADME, cell-free; conditions: read-out: Stability
[9] = Stability in presence of glutathione containing medium assessed as compound remaining measured after 48 hrs by UPLC-MS method; format: physicochemical; conditions: read-out: Stability

Row | SMILES | pEC50 [1] | growth inhibition (GI) [2] | growth inhibition (GI) [3] | pEC50 [4] | also measured
1 | O=C(COc1c(Cl)cccc1Cl)N/N=C/c1ccc[nH]1 | 3.90 | Non-toxic |  |  | 
2 | O=C(COc1ccc(Cl)cc1Cl)N/N=C/c1ccccn1 |  | Non-toxic | inactive |  | 
3 | O=C(COc1ccc(Cl)cc1Br)N/N=C/c1ccc[nH]1 | 5.50 |  |  | 4.68 | 
4 | Cc1ccc(/C=N/NC(=O)COc2ccc(Cl)cc2Cl)[nH]1 | 4.84 |  |  | 4.77 | 
5 | O=C(COc1ccc2c(c1)OCO2)N/N=C/c1ccc[nH]1 | 4.44 |  |  | 4.68 | 
6 | O=C(COc1ccc(Cl)cc1Cl)N/N=C/c1cc2ccccc2[nH]1 | 3.90 |  |  | 4.63 | 
7 | O=C(COc1ccc(Cl)cc1Cl)N/N=C/c1ccc[nH]1 | 5.48 | Non-toxic |  |  | 
8 | O=C(COc1ccccc1Cl)N/N=C/c1ccc[nH]1 | 4.47 | Non-toxic |  |  | 
9 | Cc1cc(Br)ccc1OCC(=O)N/N=C/c1ccc[nH]1 | 5.42 | Non-toxic |  |  | 
10 | CC(Oc1ccc(F)cc1Cl)C(=O)N/N=C/c1ccc[nH]1 (stereo not drawn) | 4.45 | Non-toxic |  |  | 
11 | Cc1cc(Cl)ccc1OCC(=O)N/N=C/c1ccc[nH]1 | 5.54 |  |  | 4.57 | 
12 | O=C(COc1ccc(Cl)cc1Cl)N/N=C/c1ccccc1O | 4.10 |  |  | 4.25 | 
13 | CC(Oc1cc(Cl)ccc1Cl)C(=O)N/N=C/c1ccc[nH]1 (stereo not drawn) | 4.48 |  |  | 4.01 | 
14 | O=C(CCc1ccc2c(c1)OCO2)N/N=C/c1ccc[nH]1 | 4.27 | Non-toxic |  |  | 
15 | O=C(COc1ccc2ccccc2c1Br)N/N=C/c1ccc[nH]1 | 5.95 |  |  | 5.52 | 
16 | Cc1cc(C)c(OCC(=O)N/N=C/c2ccc[nH]2)c(C)c1 | 5.03 | Non-toxic |  |  | 
17 | Cc1ccccc1OCC(=O)N/N=C/c1ccc[nH]1 | 4.39 | Non-toxic |  |  | 
18 | O=C(COc1ccc(Cl)cc1Cl)N/N=C/c1ccccc1 |  | Non-toxic | inactive |  | 
19 | O=C(COc1cc(Cl)ccc1Cl)N/N=C/c1ccc[nH]1 | 5.47 | Non-toxic |  |  | 
20 | O=C(COc1ccc(Cl)cc1Cl)N/N=C/c1cc[nH]n1 |  | Non-toxic | inactive |  | 

Row | SMILES | pEC50 [1] | growth inhibition (GI) [2] | growth inhibition (GI) [3] | pEC50 [4] | also measured
21 | CC(C)(C)c1ccc2c(c1)OC(C(=O)N/N=C/c1ccc[nH]1)CO2 (stereo not drawn) | 5.60 |  |  | 4.83 | 
22 | O=C(N/N=C/c1ccc[nH]1)C1Cc2ccccc2O1 (stereo not drawn) |  | Non-toxic | inactive |  | 
23 | O=C(COc1ccc(Cl)cc1Cl)N/N=C/c1c[nH]cn1 |  | Non-toxic | inactive |  | 
24 | COc1ccccc1OCC(=O)N/N=C/c1ccc[nH]1 |  | Non-toxic | inactive |  | 
25 | O=C(N/N=C/c1ccc[nH]1)C1CC1c1ccc(Cl)cc1Cl (stereo not drawn) | 4.23 | Non-toxic |  |  | 
26 | C/C(=N\NC(=O)COc1ccc(Cl)cc1Cl)c1ccc[nH]1 |  | Non-toxic | inactive |  | 
27 | O=C(COc1ccc(Cl)cc1)N/N=C/c1ccc[nH]1 | 4.65 | Non-toxic |  |  | 
28 | O=C(COc1ccc(Cl)cc1Cl)N/N=C/c1ccco1 |  | Non-toxic | inactive |  | 
29 | O=C(CSc1ccc(Cl)cc1Cl)N/N=C/c1ccc[nH]1 | 5.64 |  |  | 4.74 | 
30 | O=C(COc1ccc(Cl)cc1Cl)N/N=C/c1cccs1 |  | Non-toxic | inactive |  | 
31 | CC(C)(C)c1ccc(C2CC2C(=O)N/N=C/c2ccc[nH]2)cc1 (stereo not drawn) | 6.10 |  |  | 5.67 | 
32 | O=C(N/N=C/c1ccc[nH]1)c1cc2ccccc2o1 | 5.20 | Non-toxic |  |  | 
33 | Cn1cccc1/C=N/NC(=O)COc1ccc(Cl)cc1Cl |  | Non-toxic | inactive |  | 
34 | Cc1ccccc1NCC(=O)N/N=C/c1ccc[nH]1 |  | Non-toxic | inactive |  | 
35 | O=C(N/N=C/c1ccc[nH]1)C1CC1c1ccccc1 (stereo not drawn) | 4.89 | Non-toxic |  |  | 
36 | O=C(COc1ccc(F)cc1Cl)N/N=C/c1ccc[nH]1 | 5.05 |  |  | 4.47 | 
37 | O=C(COc1c(Cl)cc(Cl)cc1Cl)N/N=C/c1ccc[nH]1 | 5.94 |  |  | 4.56 | remaining at 48 h [5]: 76%; solubility kinetic at 100 µM [6]: 6.3 µM (≈ 2.18 µg/mL); fraction unbound at 48 h [7]: 0.012; remaining at 5 h [8]: 49%; remaining at 48 h [9]: 85%
38 | O=C(N/N=C/c1ccc[nH]1)C1COc2cc3ccccc3cc2O1 (stereo not drawn) | 5.38 |  |  | 4.72 | 
39 | N#Cc1ccccc1OCC(=O)N/N=C/c1ccc[nH]1 |  | Non-toxic | inactive |  | 

— ChEMBL document CHEMBL2086332, “Identification of a selective small molecule inhibitor of breast cancer stem cells” (Bioorg Med Chem Lett, 2012)
